Data on 26 compounds can be found in patent US20240124485A1, “SUBSTITUTED AMIDE MACROCYCLIC COMPOUNDS WITH OREXIN-2 RECEPTOR AGONIST ACTIVITY” (Alkermes, Inc., priority 2021, published 2024).

The assay has as its target T1, human orexin-2 receptor (OX2R) (Homo sapiens, UniProt O43614).
T1 construct: expressed in transfected cells
T1 sequence (O43614 1-444): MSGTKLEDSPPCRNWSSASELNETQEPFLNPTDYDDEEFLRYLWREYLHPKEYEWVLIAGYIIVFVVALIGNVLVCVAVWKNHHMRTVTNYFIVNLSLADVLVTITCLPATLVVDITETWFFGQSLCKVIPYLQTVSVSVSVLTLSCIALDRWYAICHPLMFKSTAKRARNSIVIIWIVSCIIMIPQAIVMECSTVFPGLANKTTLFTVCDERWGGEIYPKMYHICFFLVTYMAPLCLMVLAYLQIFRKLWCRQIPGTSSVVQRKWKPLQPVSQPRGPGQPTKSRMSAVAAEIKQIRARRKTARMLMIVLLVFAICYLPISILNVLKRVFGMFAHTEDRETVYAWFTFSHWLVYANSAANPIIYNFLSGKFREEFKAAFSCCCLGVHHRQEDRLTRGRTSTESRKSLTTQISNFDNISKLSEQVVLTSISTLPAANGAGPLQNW
Put plainly: Human OX2R IP1 assay. Format: cell-based. The conditions noted are these: T-Rex CHO cells stably overexpressing the human orexin-2 receptor; IP1 accumulation, 1 hr at 37 degrees C. On the procedure:
T-Rex CHO cells stably overexpressing the human orexin-2 receptor (OX2R) were induced overnight with 1 μg/mL of doxycycline in a T225 flask. 24 hours post induction, cells were lifted with accutase and plated into a 384-well proxy plate at 30,000 cells/well. Cells were then treated with different test compounds in 1× stimulation buffer containing 10 mM Hepes, 1 mM CaCl2), 0.5 mM MgCl2, 4.2 mM KCl, 146 mM NaCl, 5.5 mM glucose, and 50 mM LiCl, pH 7.4, for 1 hr at 37 degrees C. Following incubation, the reaction was terminated by the addition of detection mix, which is composed of IP1-d2 and anti-IP1-cryptate diluted in lysis buffer as well as 1× stimulation buffer. The plates were allowed to incubate for 1 hour at room temperature and were then read in the ENVISION® multimode plate reader, measuring inositol phosphate levels.
Cisbio IP1 is a cell-based functional assay quantifying the accumulation of inositol monophosphate (IP), a metabolite released as a result of orexin 2 receptor activation through the phospholipase C-Gq signaling pathway. This is a competitive immunoassay in which the IP1 produced by the cells upon receptor activation competes with the IP1 analog coupled to the d2 fluorophore (acceptor) for binding to an anti-IP1 monoclonal antibody labeled with Eucryptate (donor). The measured HTRF-FRET based signal is inversely proportional to the IP1 concentration produced.
The EC50 values reported in Table 2 were obtained according to the human OX2R IP1 assay described above. Data are the mean EC50 values ±S.E.M.

Where only a bound is given, the exact number is not on record here.

Turning to `CN1CCC1C(=O)N[C@H]1CCCN2C(=O)COc3ccccc3C3CCC(CC3)OCC12` (some centres unmarked) [Compound 19], the concentration giving a half-maximal response (EC50) (as a rule, the midpoint of the concentration-response curve) is more than 1000 nM. As for `O=C(N[C@H]1CCCN2C(=O)COc3ccccc3[C@H]3CC[C@H](CC3)OC[C@@H]12)c1ncco1` [Compound 18], the EC50 was more than 1000 nM. `COCC(=O)N[C@H]1CCCN2C(=O)COc3ccccc3[C@H]3CC[C@H](CC3)OC[C@@H]12` (stereo in doubt) [Compound 3] returned an EC50 of less than 100 nM. In turn, `Cc1cccc2c1C1CCC(CC1)OC[C@H]1[C@@H](NC(=O)C3CCCO3)CCCN1C(=O)CO2` (stereo in doubt) [Compound 14] yielded an EC50 of less than 100 nM. Next, `CN1CCCC1C(=O)N[C@H]1CCCN2C(=O)COc3ccccc3C3CCC(CC3)OCC12` (some centres unmarked) [Compound 22]: more than 1000 nM.

Compound `CN1CCCC1C(=O)N[C@H]1CCCN2C(=O)COc3ccccc3C3CCC(CC3)OCC12` (some centres unmarked) [Compound 24] displayed a concentration for a half-maximal effect (EC50) of more than 1000 nM. The compound `O=C(N[C@H]1CCCN2C(=O)COc3ccccc3C3CCC(CC3)OCC12)C1CCCCO1` (some centres unmarked) [Compound 20] registered a 50% effective concentration (EC50) of more than 1000 nM.

`O=C(N[C@H]1CCCN2C(=O)COc3ccccc3C3CCC(CC3)OC[C@@H]12)C1CCO1` (stereo in doubt) [Compound 12] registered an EC50 of less than 100 nM.

On to `O=C(N[C@H]1CCCN2C(=O)COc3ccccc3C3CCC(CC3)OC[C@@H]12)C1CCO1` (stereo in doubt) [Compound 9], for which the EC50 fell in the range of 100 to 1000 nM.

For `O=C(N[C@H]1CCCN2C(=O)COc3ccccc3C3CCC(CC3)OC[C@@H]12)C1CCOC1` (stereo in doubt) [Compound 5], the EC50 was 100 to 1000 nM.

Compound `O=C(N[C@H]1CCCN2C(=O)COc3ccccc3C3CCC(CC3)OC[C@@H]12)C1CCCO1` (stereo in doubt) [Compound 10] showed an EC50 of less than 100 nM. `O=C(N[C@H]1CCCN2C(=O)COc3ccccc3C3CCC(CC3)OC[C@@H]12)C1CCOC1` (stereo in doubt) [Compound 6] registered an EC50 of 100 to 1000 nM.

For the compound `Cc1cccc2c1C1CCC(CC1)OCC1[C@@H](NC(=O)C3CCCO3)CCCN1C(=O)CO2` (some centres unmarked) [Compound 15], the EC50 is less than 100 nM. As for `CN1CCC1C(=O)N[C@H]1CCCN2C(=O)COc3ccccc3C3CCC(CC3)OCC12` (some centres unmarked) [Compound 23], the figure is more than 1000 nM. Take `COC1(C(=O)N[C@H]2CCCN3C(=O)COc4ccccc4[C@H]4CC[C@H](CC4)OC[C@@H]23)CC1` [Compound 89]: the EC50 was more than 1000 nM. As to `O=C(N[C@H]1CCCN2C(=O)COc3ccccc3C3CCC(CC3)OC[C@@H]12)C1CCCOC1` (stereo in doubt) [Compound 11], the EC50 was 100 to 1000 nM. `O=C(N[C@H]1CCCN2C(=O)COc3ccccc3C3CCC(CC3)OC[C@@H]12)C1CCCCO1` (stereo in doubt) [Compound 2] had an EC50 of less than 100 nM. `O=C(N[C@H]1CCCN2C(=O)COc3ccccc3C3CCC(CC3)OC[C@@H]12)C1COCCO1` (stereo in doubt) [Compound 1] came in with an EC50 of less than 100 nM.

On to `Cc1ccnc2c1C1CCC(CC1)OC[C@H]1[C@@H](NC(=O)C3CCCO3)CCCN1C(=O)CO2` (stereo in doubt) [Compound 13], for which the EC50 is less than 100 nM. With `O=C(N[C@H]1CCCN2C(=O)COc3ccccc3C3CCC(CC3)OC[C@@H]12)C1CCCOC1` (stereo in doubt) [Compound 4], the EC50 was 100 to 1000 nM. As for `CN1CCOC(C(=O)N[C@H]2CCCN3C(=O)COc4ccccc4C4CCC(CC4)OCC23)C1` (some centres unmarked) [Compound 21], the figure is more than 1000 nM; as for `O=C(N[C@H]1CCCN2C(=O)COc3ccccc3C3CCC(CC3)OC[C@@H]12)C1COCCO1` (stereo in doubt) [Compound 8], 100 to 1000 nM; as for `Cc1ccnc2c1C1CCC(CC1)OCC1[C@@H](NC(=O)C3CCCO3)CCCN1C(=O)CO2` (some centres unmarked) [Compound 17], less than 100 nM. With `O=C(N[C@H]1CCCN2C(=O)COc3ccccc3[C@H]3CC[C@H](CC3)OC[C@@H]12)C1COC1` [Compound 16], the EC50 is less than 100 nM. `CN(C)C(=O)C(=O)N[C@H]1CCCN2C(=O)COc3ccccc3[C@H]3CC[C@H](CC3)OC[C@@H]12` [Compound 7]: the EC50 is less than 100 nM. Compound `CN1CCOC(C(=O)N[C@H]2CCCN3C(=O)COc4ccccc4C4CCC(CC4)OCC23)C1` (some centres unmarked) [Compound 25] registered an EC50 of more than 1000 nM.
